Active and inactive are the calls of the source. The calls are words filed in the database; no cut-off is given here.
Key:
PC-12 [1] = assay: Neuroprotective activity against 6-OHDA-induced neurotoxicity in rat PC-12 cells at 5 to 40 uM incubated for 24 hrs by MTT assay; assay type: functional, cell-based; details: dose 5-40 µM
PC-12 [2] = assay: Neuroprotective activity against H2O2-induced neurotoxicity in rat PC-12 cells assessed as increase in catalase level at 2.5 to 40 uM by Western blot analysis; assay type: functional, cell-based; details: dose 2.5-40 µM
Caenorhabditis elegans [3] = assay: Antioxidant activity in Caenorhabditis elegans CL4176 expressing human amyloid-beta peptide assessed as decrease in ROS level at 50 uM incubated for 7 days by H2DCF-DA probe based analysis relative to control; assay type: functional; parameters: scale not given: the % may be the effect or the level left; details: time 7 day
BV-2 [4] = assay: Anti-inflammatory activity against mouse BV-2 cells assessed as reduction in LPS-induced iNOS expression pretreated for 3 hrs followed by LPS addition measured after 24 hrs by Western blot analysis; assay type: functional, cell-based; details: dose 3-30 µM, time 27.0 hrs
BV-2 [5] = assay: Anti-inflammatory activity against mouse BV-2 cells assessed as inhibition of LPS-induced NF-kappaB p65 phosphorylation pretreated for 3 hrs followed by LPS addition measured after 24 hrs by Western blot analysis; assay type: functional, cell-based; details: dose 3-30 µM, time 27.0 hrs
PC-12 [6] = assay: Neuroprotective activity against H2O2-induced neurotoxicity in rat PC-12 cells assessed as increase in HO-1 level at 2.5 to 40 uM by Western blot analysis; assay type: functional, cell-based; details: dose 2.5-40 µM
Caenorhabditis elegans [7] = assay: Antialzheimer activity in transgenic Caenorhabditis elegans CL4176 expressing human amyloid-beta peptide assessed as decrease in paralysis rate at 12.5 uM incubated for 14 hrs relative to control; assay type: functional; parameters: scale not given: the % may be the effect or the level left
BV-2 [8] = assay: Anti-inflammatory activity against mouse BV-2 cells assessed as inhibition of LPS-induced JNK activation at 30 uM pretreated for 3 hrs followed by LPS addition measured after 24 hrs; assay type: functional, cell-based; details: time 27.0 hrs
BV-2 [9] = assay: Anti-inflammatory activity against mouse BV-2 cells assessed as reduction in LPS-induced COX-2 expression pretreated for 3 hrs followed by LPS addition measured after 24 hrs by Western blot analysis; assay type: functional, cell-based; details: dose 3-30 µM, time 27.0 hrs
PC-12 [10] = assay: Neuroprotective activity against H2O2-induced neurotoxicity in rat PC-12 cells at 5 to 40 uM incubated for 24 hrs by MTT assay; assay type: functional, cell-based; details: dose 5-40 µM
BV-2 [11] = assay: Anti-inflammatory activity against mouse BV-2 cells assessed as inhibition of LPS-induced NO production pretreated for 3 hrs followed by LPS addition measured after 24 hrs by Griess reagent based assay; assay type: functional, cell-based
BV-2 [12] = assay: Anti-inflammatory activity against mouse BV-2 cells assessed as inhibition of LPS-induced p-JNK activation at 30 uM pretreated for 3 hrs followed by LPS addition measured after 24 hrs; assay type: functional, cell-based; details: time 27.0 hrs
PC-12 [13] = assay: Neuroprotective activity against H2O2-induced neurotoxicity in rat PC-12 cells incubated for 24 hrs by MTT assay; assay type: functional, cell-based; details: dose 5-40 µM
Caenorhabditis elegans [14] = assay: Antialzheimer activity in transgenic Caenorhabditis elegans CL4176 expressing human amyloid-beta peptide assessed as decrease in paralysis rate at 25 uM incubated for 14 hrs; assay type: functional, organism-based
BV-2 [15] = assay: Anti-inflammatory activity against mouse BV-2 cells assessed as reduction in LPS-induced COX-2 expression pretreated for 3 hrs followed by LPS addition measured after 24 hrs by immunofluorescence based analysis; assay type: functional, cell-based; details: dose 3-30 µM
BV-2 [16] = assay: Anti-inflammatory activity against mouse BV-2 cells assessed as inhibition of LPS-induced NF-kappaB p65 nuclear entry at 3 to 30 uM pretreated for 3 hrs followed by LPS addition measured after 24 hrs by Western blot analysis; assay type: functional, cell-based; details: dose 3-30 µM, time 27.0 hrs
PC-12 [17] = assay: Induction of neuronal differentiation in rat PC-12 cells assessed as increase in neurite bearing cells incubated for 48 hrs in presence of NGF by microscopic analysis; assay type: functional, cell-based; details: dose 1-10 µM
PC-12 [18] = assay: Induction of neuronal differentiation in rat PC-12 cells at 10 uM incubated for 48 hrs by microscopic analysis; assay type: functional, cell-based
[19] = Induction of neuronal differentiation in rat PC-12 cells assessed as neurite growth at 10 uM incubated for 48 hrs in presence of NGF by microscopic analysis (reference value: 8.39 +/- 0.03 %); assay type: functional
[20] = Induction of neuronal differentiation in rat PC-12 cells assessed as neurite growth by measuring fold change at 10 uM incubated for 48 hrs in presence of NGF by microscopic analysis relative to NGF; assay type: functional

Structure (SMILES): CC(C)=CC(=O)C[C@]1(C)Oc2cc(C)cc3c2[C@H]2C[C@](C)(CC[C@H]21)O3
- Activity (PC-12 [1]): Active; Activity Was Comparable To That Of Ngf
- Activity (PC-12 [2]): Active; Exhibited More Activity Than That Of Positive Group
- Activity (Caenorhabditis elegans [3]): >=15.2%
- Activity (BV-2 [4]): Active
- inhibition (BV-2 [5]): Dose-dependent-effect
- Activity (PC-12 [6]): Active; Exhibited More Activity Than That Of Positive Group
- Activity (Caenorhabditis elegans [7]): ~20%
- inhibition (BV-2 [8]): Active; Activity Was Comparable To That Of Quercetin
- Activity (BV-2 [9]): Active
- Activity (PC-12 [10]): Active; Activity Was Comparable To That Of Ngf
- IC50 (BV-2 [11]): 15.7 µM

Structure (SMILES): C/C(=C\Cc1c(O)cc(C)cc1O)CC/C=C(\C)CC(=O)CC(C)C
- IC50 (BV-2 [11]): 20 µM

Structure (SMILES): C=C(C)[C@@H]1CC[C@]2(C)Oc3cc(C)cc(O)c3C[C@H]12
- Activity (PC-12 [1]): Active; Activity Was Comparable To That Of Ngf
- Activity (PC-12 [10]): Active; Activity Was Comparable To That Of Ngf
- IC50 (BV-2 [11]): > 30 µM

Structure (SMILES): C=C(C)[C@@H](O)CC[C@@]1(C)[C@@H]2CC[C@]3(C)Oc4cc(C)cc(O)c4[C@H]1[C@H]23
- Activity (PC-12 [1]): Active; Capable Of Rescuing Cell Injury To Greater Extent

Structure (SMILES): C/C(=C\CC/C(C)=C/CC[C@@]1(C)C=Cc2c(O)cc(C)cc2O1)CO
- Activity (BV-2 [4]): Dose-dependent-effect
- inhibition (BV-2 [12]): Active; Exhibited Mild Inhibition
- Activity (BV-2 [9]): Dose-dependent-effect
- IC50 (BV-2 [11]): 15.8 µM

Structure (SMILES): CC(C)=CCC/C(C)=C/CC/C(C)=C/Cc1c(O)cc(C)cc1O [GRIFOLIN]
- Activity (PC-12 [2]): Active
- Activity (PC-12 [6]): Active
- IC50 (BV-2 [11]): 18.9 µM

Structure (SMILES): C/C(=C\CC[C@@]1(C)C=Cc2c(O)cc(C)cc2O1)CC(=O)CC(C)C
- IC50 (BV-2 [11]): 21.3 µM

Structure (SMILES): CC(C)=CC(=O)[C@@H]1[C@H]2c3c(O)cc(C)cc3O[C@@]3(C)CCC[C@]1(C)[C@@H]23
- Activity (PC-12 [1]): Active; Activity Was Comparable To That Of Ngf
- Activity (PC-12 [13]): Dose-dependent-effect; Activity Was Comparable To That Of Ngf
- Activity (Caenorhabditis elegans [14]): Active; Activity Was Comparable With Quercetin At 50 Um
- Activity (Caenorhabditis elegans [3]): >=18.7%
- Activity (BV-2 [4]): Dose-dependent-effect; Exhibited More Potency Than Quercetin
- Activity (BV-2 [15]): Dose-dependent-effect
- inhibition (BV-2 [16]): Active; Exhibited Mild Inhibition
- inhibition (BV-2 [8]): Active; Activity Was Comparable To That Of Quercetin
- Activity (BV-2 [9]): Dose-dependent-effect; Exhibited More Potency Than Quercetin
- IC50 (BV-2 [11]): 17.5 µM

Structure (SMILES): COC(C)(C)CC(=O)[C@@H]1[C@H]2c3c(O)cc(C)cc3O[C@@]3(C)CCC[C@]1(C)[C@@H]23
- Activity (PC-12 [1]): Active; Activity Was Comparable To That Of Ngf
- Activity (PC-12 [17]): Dose-dependent-effect
- Activity (PC-12 [18]): Active
- Activity (PC-12 [10]): Active; Activity Was Comparable To That Of Ngf

Structure (SMILES): O=c1c(O)c(-c2ccc(O)c(O)c2)oc2cc(O)cc(O)c12 [QUERCETIN]
- IC50 (BV-2 [11]): 11.8 µM

Structure (SMILES): Cc1cc(O)c2c(c1)O[C@@]1(C)CC[C@@H](C(C)(C)O)[C@@H]2C1
- Activity (PC-12 [1]): Active; Capable Of Rescuing Cell Injury To Greater Extent

Structure (SMILES): COC(C)(C)C/C=C/C(C)=C/CC[C@@]1(C)C=Cc2c(O)cc(C)cc2O1
- Activity (PC-12 [17]): Dose-dependent-effect
- Activity [19]: 22.93%
- Activity (PC-12 [18]): Active
- fold change (FC) [20]: ~3

Structure (SMILES): C=C(C)[C@H](O)CC[C@@]1(C)[C@@H]2CC[C@]3(C)Oc4cc(C)cc(O)c4[C@H]1[C@H]23
- Activity (PC-12 [1]): Active; Activity Was Comparable To That Of Ngf
- Activity (PC-12 [10]): Active; Activity Was Comparable To That Of Ngf
- IC50 (BV-2 [11]): 22.1 µM

Structure (SMILES): C/C(=C/CC/C(C)=C/CC[C@@]1(C)C=Cc2c(O)cc(C)cc2O1)CO
- IC50 (BV-2 [11]): 11.3 µM

Structure (SMILES): Cc1cc(O)c2c(c1)O[C@@]1(C)CC[C@H]3O[C@@H]2[C@@H]1C3(C)C
- Activity (PC-12 [1]): Active; Activity Was Comparable To That Of Ngf
- Activity (PC-12 [17]): Dose-dependent-effect
- Activity [19]: 21.85%
- Activity (PC-12 [18]): Active
- fold change (FC) [20]: ~3
- Activity (PC-12 [10]): Active; Activity Was Comparable To That Of Ngf
- IC50 (BV-2 [11]): > 30 µM

Structure (SMILES): Cc1cc(O)c2c(c1)O[C@@]1(C)CCC[C@@]3(C)[C@H](C(=O)CC(C)C)[C@@H]2[C@H]31
- Activity (PC-12 [1]): Active; Capable Of Rescuing Cell Injury To Greater Extent
- Activity (PC-12 [17]): Dose-dependent-effect
- Activity (PC-12 [18]): Active
- Activity (PC-12 [10]): Active
- IC50 (BV-2 [11]): 28.2 µM

Structure (SMILES): CC(C)=CC[C@H](O)/C(C)=C/CC[C@@]1(C)C=Cc2c(O)cc(C)cc2O1
- Activity (PC-12 [17]): Dose-dependent-effect
- Activity (PC-12 [18]): Active
- IC50 (BV-2 [11]): 19.9 µM

Structure (SMILES): C=C(C)[C@@H](O)CC/C(C)=C/CC[C@@]1(C)C=Cc2c(O)cc(C)cc2O1
- IC50 (BV-2 [11]): 25.2 µM

Source: ChEMBL document CHEMBL6078721, “Structurally diverse chromane meroterpenoids from Rhododendron capitatum with multifunctional neuroprotective effects” (Eur J Med Chem, 2025)
